Measured values as given in patent US20260285850A1, “SUBSTITUTED OXAZOLIDINONES AND IMIDAZOLINONES AS HERBICIDES” (FMC CORPORATION, priority 2023, published 2026).

How the values were obtained:
Format in all cases: in vivo
[1] = test system: barnyardgrass (Echinochloa crus-galli); test: Test A preemergence soil spray, visual injury rating 0-100; details: 10 days
Summary of the method: (§1)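 Plants were grown in a loam soil-sand blend and treated with test chemical in a non-phytotoxic solvent mixture containing surfactant, either sprayed on soil preemergence or applied postemergence to 2-10 cm plants. After 10 days in a greenhouse, injury was scored visually against untreated controls, 0 meaning no effect and 100 complete control.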

[2] = test system: blackgrass (Alopecurus myosuroides); test: as above; details: 10 days
Summary of the method: as §1

[3] = test system: corn (Zea mays); test: as above; details: 10 days
Summary of the method: as §1

[4] = test system: green foxtail (Setaria viridis); test: as above; details: 10 days
Summary of the method: as §1

[5] = test system: kochia (Bassia scoparia); test: as above; details: 10 days
Summary of the method: as §1

[6] = test system: oat, wild (wild oat, Avena fatua); test: as above; details: 10 days
Summary of the method: as §1

[7] = test system: palmer (palmer amaranth, palmer pigweed, Amaranthus palmeri); test: as above; details: 10 days
Summary of the method: as §1

[8] = test system: ragweed (common ragweed, Ambrosia artemisiifolia); test: as above; details: 10 days
Summary of the method: as §1

[9] = test system: ryegrass, Italian (italian ryegrass, Lolium multiflorum); test: as above; details: 10 days
Summary of the method: as §1

[10] = test system: soybean (Glycine max); test: as above; details: 10 days
Summary of the method: as §1

[11] = test system: wheat (Triticum aestivum); test: as above; details: 10 days
Summary of the method: as §1

[12] = test system: barnyardgrass (Echinochloa crus-galli); test: Test A postemergence application, visual injury rating 0-100
Summary of the method: as §1

[13] = test system: blackgrass (Alopecurus myosuroides); test: as above
Summary of the method: as §1

[14] = test system: corn (Zea mays); test: as above
Summary of the method: as §1

[15] = test system: galium (catchweed bedstraw, Galium aparine); test: as above
Summary of the method: as §1

[16] = test system: green foxtail (Setaria viridis); test: as above
Summary of the method: as §1

[17] = test system: horseweed (Erigeron canadensis); test: as above
Summary of the method: as §1

[18] = test system: kochia (Bassia scoparia); test: as above
Summary of the method: as §1

[19] = test system: oat, wild (wild oat, Avena fatua); test: as above
Summary of the method: as §1

[20] = test system: palmer (palmer amaranth, palmer pigweed, Amaranthus palmeri); test: as above
Summary of the method: as §1

[21] = test system: ragweed (common ragweed, Ambrosia artemisiifolia); test: as above
Summary of the method: as §1

[22] = test system: ryegrass, Italian (italian ryegrass, Lolium multiflorum); test: as above
Summary of the method: as §1

[23] = test system: soybean (Glycine max); test: as above
Summary of the method: as §1

[24] = test system: wheat (Triticum aestivum); test: as above
Summary of the method: as §1

[25] = test system: barnyardgrass (Echinochloa crusgalli); test: Test B flooded paddy test, visual plant response rating 0-100; details: 250 g ai/ha, Flood, applied to paddy water, evaluated after 13 days
Summary of the method: (§2)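 Paddy-water application: test compounds went directly into water flooded 3 cm above the soil surface, with plants at 2 leaves. After a 13-day greenhouse period, responses were judged by eye relative to controls; a dash marks an untested entry.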

[26] = test system: ducksalad (Heteranthera limosa); test: as above; details: 250 g ai/ha, Flood, applied to paddy water, evaluated after 13 days
Summary of the method: as §2

[27] = test system: rice (Oryza sativa); test: as above; details: 250 g ai/ha, Flood, applied to paddy water, evaluated after 13 days
Summary of the method: as §2

[28] = test system: sedge, umbrella (small-flower umbrella sedge, Cyperus difformis); test: as above; details: 250 g ai/ha, Flood, applied to paddy water, evaluated after 13 days
Summary of the method: as §2

[29] = 62 g ai/ha, 0 = no effect, 100 = complete control
[30] = 62 g ai/ha, postemergence, 10 days, 0 = no effect, 100 = complete control
[31] = Postemergence, 16 g ai/ha, greenhouse 10 days, 0 no effect, 100 complete control

In the case of `CCOC(=O)C1CC(NC(=O)C2(C)CN(c3cc(F)cc(F)c3)C(=O)O2)C1` (stereo not shown) [Compound 125], the “Barnyardgrass plant response rating” value ([1]; 16 g ai/ha, 0 to 100 scale) is reported as 0, the “Barnyardgrass plant response rating (0-100)” value [1, 29] is reported as 50 and the “Blackgrass plant response rating” value ([2]; 16 g ai/ha, 0 to 100 scale) is reported as 50. For the same molecule, the “Blackgrass plant response rating (0-100)” value [2, 29] was 90, the “Corn plant response rating” value ([3]; 16 g ai/ha, 0 to 100 scale) was 0 and the “Corn plant response rating (0-100)” value [3, 29] was 90. For the same molecule, the “Foxtail, Green plant response rating” value ([4]; 16 g ai/ha, 0 to 100 scale) was 10, the “Foxtail, Green plant response rating (0-100)” value [4, 29] was 90 and the “Kochia plant response rating” value ([5]; 16 g ai/ha, 0 to 100 scale) was 0. The “Kochia plant response rating (0-100)” value [5, 29] was 90, the “Oat, Wild plant response rating” value ([6]; 16 g ai/ha, 0 to 100 scale) was 90 and the “Oat, Wild plant response rating (0-100)” value [6, 29] was 90. For the same molecule, the “Pigweed, Palmer plant response rating” value ([7]; 16 g ai/ha, 0 to 100 scale) was 20, the “Pigweed, Palmer plant response rating (0-100)” value [7, 29] was 50 and the “Ragweed plant response rating” value ([8]; 16 g ai/ha, 0 to 100 scale) was 0. The “Ragweed plant response rating (0-100)” value [8, 29] was 20, the “Ryegrass, Italian plant response rating” value ([9]; 16 g ai/ha, 0 to 100 scale) was 0 and the “Ryegrass, Italian plant response rating (0-100)” value [9, 29] was 90. The “Soybean plant response rating” value ([10]; 16 g ai/ha, 0 to 100 scale) was 10, the “Soybean plant response rating (0-100)” value [10, 29] was 0 and the “Wheat plant response rating” value ([11]; 16 g ai/ha, 0 to 100 scale) was 30. For the same molecule, the “Wheat plant response rating (0-100)” value [11, 29] was 60, the “Barnyardgrass plant response rating (0-100)” value [12, 30] was 100 and the “Barnyardgrass plant response rating (0 to 100 scale)” value [12, 31] was 60. The “Blackgrass plant response rating (0-100)” value [13, 30] was 90, the “Blackgrass plant response rating (0 to 100 scale)” value [13, 31] was 90 and the “Corn plant response rating (0-100)” value [14, 30] was 100. The “Corn plant response rating (0 to 100 scale)” value [14, 31] was 90, the “Galium plant response rating (0-100)” value [15, 30] was 60 and the “Galium plant response rating (0 to 100 scale)” value [15, 31] was 30. For the same molecule, the “Foxtail, Green plant response rating (0-100)” value [16, 30] was 90, the “Foxtail, Green plant response rating (0 to 100 scale)” value [16, 31] was 80 and the “Horseweed plant response rating (0-100)” value [17, 30] was 20. For the same molecule, the “Horseweed plant response rating (0 to 100 scale)” value [17, 31] was 0, the “Kochia plant response rating (0-100)” value [18, 30] was 80 and the “Kochia plant response rating (0 to 100 scale)” value [18, 31] was 30. The “Oat, Wild plant response rating (0-100)” value [19, 30] was 90, the “Oat, Wild plant response rating (0 to 100 scale)” value [19, 31] was 50 and the “Pigweed, Palmer plant response rating (0-100)” value [20, 30] was 70. The “Pigweed, Palmer plant response rating (0 to 100 scale)” value [20, 31] was 10, the “Ragweed plant response rating (0-100)” value [21, 30] was 50 and the “Ragweed plant response rating (0 to 100 scale)” value [21, 31] was 20. For the same molecule, the “Ryegrass, Italian plant response rating (0-100)” value [22, 30] was 70, the “Ryegrass, Italian plant response rating (0 to 100 scale)” value [22, 31] was 20 and the “Soybean plant response rating (0-100)” value [23, 30] was 70. For the same molecule, the “Soybean plant response rating (0 to 100 scale)” value [23, 31] was 50, the “Wheat plant response rating (0-100)” value [24, 30] was 90 and the “Wheat plant response rating (0 to 100 scale)” value [24, 31] was 80. The “Plant response rating, Barnyardgrass (0 to 100 scale, 0 is no effect and 100 is complete control)” value [25] was 0, the “Plant response rating, Ducksalad (0 to 100 scale, 0 is no effect and 100 is complete control)” value [26] was 0 and the “Plant response rating, Rice (0 to 100 scale, 0 is no effect and 100 is complete control)” value [27] was 0. The “Plant response rating, Sedge, Umbrella (0 to 100 scale, 0 is no effect and 100 is complete control)” value [28] was 0.
